For 16 molecules, IC50 results are on record in PMC2191316 (The Journal of Experimental Medicine, 1994).

Residues, ends and D or L forms follow the SMILES beside them.

The target of this test is DRB5*0101 molecules (Homo sapiens, UniProt P01903+Q30154). The experiment in a line: Inhibition of radiolabeled TT. The test is classed as binding.
`CC[C@H](C)[C@H](NC(=O)[C@H](CC(N)=O)NC(=O)[C@H](CCCCN)NC(=O)[C@H](Cc1ccccc1)NC(=O)[C@H](C)NC(=O)[C@H](Cc1c[nH]cn1)NC(=O)[C@@H](NC(=O)[C@@H](NC(=O)[C@@H]1CCCN1C(=O)[C@H](CC(N)=O)NC(=O)[C@@H](N)CCC(=O)O)C(C)C)C(C)C)C(=O)N[C@H](C(=O)N[C@H](C(=O)N1CCC[C@H]1C(=O)N[C@@H](CCCNC(=N)N)C(=O)O)[C@@H](C)O)C(C)C` [(85-99)91A] (H-ENPVVHAFKNIVTPR-OH) yielded an IC50 of 1300 nM.

Molecule `CC[C@H](C)[C@H](NC(=O)[C@H](CC(N)=O)NC(=O)[C@H](CCCCN)NC(=O)[C@H](Cc1ccccc1)NC(=O)[C@H](Cc1ccccc1)NC(=O)[C@H](Cc1c[nH]cn1)NC(=O)[C@@H](NC(=O)[C@@H](NC(=O)[C@@H]1CCCN1C(=O)[C@H](CC(N)=O)NC(=O)[C@@H](N)CCC(=O)O)C(C)C)C(C)C)C(=O)N[C@H](C(=O)N[C@H](C(=O)N[C@@H](C)C(=O)N[C@@H](CCCNC(=N)N)C(=O)O)[C@@H](C)O)C(C)C` [(85-99)98A] (H-ENPVVHFFKNIVTAR-OH) gave an IC50 of 350 nM.

Turning to `CC[C@H](C)[C@H](NC(=O)[C@H](CC(N)=O)NC(=O)[C@H](CCCCN)NC(=O)[C@H](Cc1ccccc1)NC(=O)[C@H](Cc1ccccc1)NC(=O)[C@H](Cc1c[nH]cn1)NC(=O)[C@@H](NC(=O)[C@@H](NC(=O)[C@@H]1CCCN1C(=O)[C@H](CC(N)=O)NC(=O)[C@H](CCC(=O)O)NC(=O)[C@@H](N)CC(=O)O)C(C)C)C(C)C)C(=O)N[C@H](C(=O)N[C@H](C(=O)N1CCC[C@H]1C(=O)N[C@@H](CCCNC(=N)N)C(=O)N[C@H](C(=O)N1CCC[C@H]1C(=O)N1CCC[C@H]1C(=O)O)[C@@H](C)O)[C@@H](C)O)C(C)C` [(84-102)], the half-inhibitory concentration (IC50) stood at 55 nM.

Regarding `CC[C@H](C)[C@H](NC(=O)[C@H](CC(N)=O)NC(=O)[C@H](CCCCN)NC(=O)[C@H](Cc1ccccc1)NC(=O)[C@H](Cc1ccccc1)NC(=O)[C@H](Cc1c[nH]cn1)NC(=O)[C@@H](NC(=O)[C@@H](NC(=O)[C@H](C)NC(=O)[C@H](CC(N)=O)NC(=O)[C@@H](N)CCC(=O)O)C(C)C)C(C)C)C(=O)N[C@H](C(=O)N[C@H](C(=O)N1CCC[C@H]1C(=O)N[C@@H](CCCNC(=N)N)C(=O)O)[C@@H](C)O)C(C)C` [(85-99)87A] (H-ENAVVHFFKNIVTPR-OH), it took 610 nM to reach half-maximal inhibition (IC50).

Regarding `CC[C@H](C)[C@H](NC(=O)[C@H](CC(N)=O)NC(=O)[C@H](CCCCN)NC(=O)[C@H](C)NC(=O)[C@H](Cc1ccccc1)NC(=O)[C@H](Cc1c[nH]cn1)NC(=O)[C@@H](NC(=O)[C@@H](NC(=O)[C@@H]1CCCN1C(=O)[C@H](CC(N)=O)NC(=O)[C@@H](N)CCC(=O)O)C(C)C)C(C)C)C(=O)N[C@H](C(=O)N[C@H](C(=O)N1CCC[C@H]1C(=O)N[C@@H](CCCNC(=N)N)C(=O)O)[C@@H](C)O)C(C)C` [(85-99)92A] (H-ENPVVHFAKNIVTPR-OH), half-maximal inhibition (IC50) required 8200 nM. Against the preceding molecule, the IC50 is about 13-fold higher.

`CC[C@H](C)[C@H](NC(=O)[C@H](CC(N)=O)NC(=O)[C@H](CCCCN)NC(=O)[C@H](Cc1ccccc1)NC(=O)[C@H](Cc1ccccc1)NC(=O)[C@H](Cc1c[nH]cn1)NC(=O)[C@@H](NC(=O)[C@@H](NC(=O)[C@@H]1CCCN1C(=O)[C@H](C)NC(=O)[C@@H](N)CCC(=O)O)C(C)C)C(C)C)C(=O)N[C@H](C(=O)N[C@H](C(=O)N1CCC[C@H]1C(=O)N[C@@H](CCCNC(=N)N)C(=O)O)[C@@H](C)O)C(C)C` [(85-99)86A] (H-EAPVVHFFKNIVTPR-OH): the midpoint of inhibition, the IC50, lay at 940 nM.

For `CC[C@H](C)[C@H](NC(=O)[C@H](CC(N)=O)NC(=O)[C@H](CCCCN)NC(=O)[C@H](Cc1ccccc1)NC(=O)[C@H](Cc1ccccc1)NC(=O)[C@H](Cc1c[nH]cn1)NC(=O)[C@@H](NC(=O)[C@@H](NC(=O)[C@@H]1CCCN1C(=O)[C@H](CC(N)=O)NC(=O)[C@H](C)N)C(C)C)C(C)C)C(=O)N[C@H](C(=O)N[C@H](C(=O)N1CCC[C@H]1C(=O)N[C@@H](CCCNC(=N)N)C(=O)O)[C@@H](C)O)C(C)C` [(85-99)85A] (H-ANPVVHFFKNIVTPR-OH), inhibition was half-maximal at 420 nM (IC50).

Molecule `CC[C@H](C)[C@H](NC(=O)[C@H](C)NC(=O)[C@H](CCCCN)NC(=O)[C@H](Cc1ccccc1)NC(=O)[C@H](Cc1ccccc1)NC(=O)[C@H](Cc1c[nH]cn1)NC(=O)[C@@H](NC(=O)[C@@H](NC(=O)[C@@H]1CCCN1C(=O)[C@H](CC(N)=O)NC(=O)[C@@H](N)CCC(=O)O)C(C)C)C(C)C)C(=O)N[C@H](C(=O)N[C@H](C(=O)N1CCC[C@H]1C(=O)N[C@@H](CCCNC(=N)N)C(=O)O)[C@@H](C)O)C(C)C` [(85-99)94A] (H-ENPVVHFFKAIVTPR-OH) showed an IC50 of 140 nM.

In the case of `CC[C@H](C)[C@H](NC(=O)[C@H](CC(N)=O)NC(=O)[C@H](CCCCN)NC(=O)[C@H](Cc1ccccc1)NC(=O)[C@H](Cc1ccccc1)NC(=O)[C@H](Cc1c[nH]cn1)NC(=O)[C@@H](NC(=O)[C@H](C)NC(=O)[C@@H]1CCCN1C(=O)[C@H](CC(N)=O)NC(=O)[C@@H](N)CCC(=O)O)C(C)C)C(=O)N[C@H](C(=O)N[C@H](C(=O)N1CCC[C@H]1C(=O)N[C@@H](CCCNC(=N)N)C(=O)O)[C@@H](C)O)C(C)C` [(85-99)88A] (H-ENPAVHFFKNIVTPR-OH), the midpoint of inhibition, the IC50, lay at 945 nM. This IC50 lies about 6.8-fold higher than the previous one.

The molecule `CC[C@H](C)[C@H](NC(=O)[C@H](CC(N)=O)NC(=O)[C@H](CCCCN)NC(=O)[C@H](Cc1ccccc1)NC(=O)[C@H](Cc1ccccc1)NC(=O)[C@H](C)NC(=O)[C@@H](NC(=O)[C@@H](NC(=O)[C@@H]1CCCN1C(=O)[C@H](CC(N)=O)NC(=O)[C@@H](N)CCC(=O)O)C(C)C)C(C)C)C(=O)N[C@H](C(=O)N[C@H](C(=O)N1CCC[C@H]1C(=O)N[C@@H](CCCNC(=N)N)C(=O)O)[C@@H](C)O)C(C)C` [(85-99)90A] (H-ENPVVAFFKNIVTPR-OH) gave an IC50 of 640 nM. The IC50 values of the last two molecules are within 1.5-fold of each other.

`CC[C@H](C)[C@H](NC(=O)[C@H](CC(N)=O)NC(=O)[C@H](C)NC(=O)[C@H](Cc1ccccc1)NC(=O)[C@H](Cc1ccccc1)NC(=O)[C@H](Cc1c[nH]cn1)NC(=O)[C@@H](NC(=O)[C@@H](NC(=O)[C@@H]1CCCN1C(=O)[C@H](CC(N)=O)NC(=O)[C@@H](N)CCC(=O)O)C(C)C)C(C)C)C(=O)N[C@H](C(=O)N[C@H](C(=O)N1CCC[C@H]1C(=O)N[C@@H](CCCNC(=N)N)C(=O)O)[C@@H](C)O)C(C)C` [(85-99)93A] (H-ENPVVHFFANIVTPR-OH) had an IC50 of 2900 nM.

Molecule `CC[C@H](C)[C@H](NC(=O)[C@H](CC(N)=O)NC(=O)[C@H](CCCCN)NC(=O)[C@H](Cc1ccccc1)NC(=O)[C@H](Cc1ccccc1)NC(=O)[C@H](Cc1c[nH]cn1)NC(=O)[C@@H](NC(=O)[C@@H](NC(=O)[C@@H]1CCCN1C(=O)[C@H](CC(N)=O)NC(=O)[C@@H](N)CCC(=O)O)C(C)C)C(C)C)C(=O)N[C@@H](C)C(=O)N[C@H](C(=O)N1CCC[C@H]1C(=O)N[C@@H](CCCNC(=N)N)C(=O)O)[C@@H](C)O` [(85-99)96A] (H-ENPVVHFFKNIATPR-OH) displayed an IC50 of 730 nM.

`CC(C)[C@H](NC(=O)[C@H](C)NC(=O)[C@H](CC(N)=O)NC(=O)[C@H](CCCCN)NC(=O)[C@H](Cc1ccccc1)NC(=O)[C@H](Cc1ccccc1)NC(=O)[C@H](Cc1c[nH]cn1)NC(=O)[C@@H](NC(=O)[C@@H](NC(=O)[C@@H]1CCCN1C(=O)[C@H](CC(N)=O)NC(=O)[C@@H](N)CCC(=O)O)C(C)C)C(C)C)C(=O)N[C@H](C(=O)N1CCC[C@H]1C(=O)N[C@@H](CCCNC(=N)N)C(=O)O)[C@@H](C)O` [(85-99)95A] (H-ENPVVHFFKNAVTPR-OH) came in with an IC50 of 1100 nM.

Take `CC[C@H](C)[C@H](NC(=O)[C@H](CC(N)=O)NC(=O)[C@H](CCCCN)NC(=O)[C@H](Cc1ccccc1)NC(=O)[C@H](Cc1ccccc1)NC(=O)[C@H](Cc1c[nH]cn1)NC(=O)[C@@H](N)C(C)C)C(=O)N[C@H](C(=O)N[C@H](C(=O)N1CCC[C@H]1C(=O)N[C@@H](CCCNC(=N)N)C(=O)O)[C@@H](C)O)C(C)C` [(89-99)] (H-VHFFKNIVTPR-OH): the IC50 amounted to 1200 nM.

`CC[C@H](C)[C@H](NC(=O)[C@H](CC(N)=O)NC(=O)[C@H](CCCCN)NC(=O)[C@H](Cc1ccccc1)NC(=O)[C@H](Cc1ccccc1)NC(=O)[C@H](Cc1c[nH]cn1)NC(=O)[C@@H](NC(=O)[C@@H](NC(=O)[C@@H]1CCCN1C(=O)[C@H](CC(N)=O)NC(=O)[C@@H](N)CCC(=O)O)C(C)C)C(C)C)C(=O)N[C@H](C(=O)N[C@H](C(=O)N1CCC[C@H]1C(=O)N[C@@H](C)C(=O)O)[C@@H](C)O)C(C)C` [(85-99)99A] (H-ENPVVHFFKNIVTPA-OH) came in with an IC50 of 2300 nM.

`CC[C@H](C)[C@H](NC(=O)[C@H](CC(N)=O)NC(=O)[C@H](CCCCN)NC(=O)[C@H](Cc1ccccc1)NC(=O)[C@H](Cc1ccccc1)NC(=O)[C@H](Cc1c[nH]cn1)NC(=O)[C@H](C)NC(=O)[C@@H](NC(=O)[C@@H]1CCCN1C(=O)[C@H](CC(N)=O)NC(=O)[C@@H](N)CCC(=O)O)C(C)C)C(=O)N[C@H](C(=O)N[C@H](C(=O)N1CCC[C@H]1C(=O)N[C@@H](CCCNC(=N)N)C(=O)O)[C@@H](C)O)C(C)C` [(85-99)89A] (H-ENPVAHFFKNIVTPR-OH) had an IC50 of 690 nM.
